Measurements reported in PubChem BioAssay AID1418 (Emory University Molecular Libraries Screening Center, 2008).
The source made the active and inactive calls. No rule for the calls is given here.

Each compound was assayed against Induced myeloid leukemia cell differentiation protein Mcl-1 (Homo sapiens) (UniProt Q07820) (assay: blockers of Bid binding to Mcl-1 – biochemical, TR-FRET, dose response (AID 1418)). Conditions: Mcl-1/Bid peptide binding, TR-FRET (europium/Dy647), 2 hr.
Induced myeloid leukemia cell differentiation protein Mcl-1 (Homo sapiens), sequence (Q07820 whole entry, looked up): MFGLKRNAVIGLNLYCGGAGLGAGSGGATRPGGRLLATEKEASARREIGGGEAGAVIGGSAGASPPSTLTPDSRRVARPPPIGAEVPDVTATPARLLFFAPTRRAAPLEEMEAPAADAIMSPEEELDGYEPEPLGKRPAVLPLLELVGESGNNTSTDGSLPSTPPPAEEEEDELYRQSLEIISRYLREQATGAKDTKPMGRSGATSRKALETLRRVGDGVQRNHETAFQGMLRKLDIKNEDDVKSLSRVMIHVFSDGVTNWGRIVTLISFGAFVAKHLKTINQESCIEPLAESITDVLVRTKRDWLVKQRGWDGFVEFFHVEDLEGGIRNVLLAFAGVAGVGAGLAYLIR
For Cc1ccc(S(=O)(=O)/N=C(\CCl)N2CCOCC2)cc1, the IC50 was > 54 µM (inactive). COc1ccc(N=Nc2ccc(O)c3ncccc23)cc1 showed an IC50 of 15.1 µM. Work on Cc1ccc([N+](=O)[O-])cc1N=Nc1c(-c2ccc([N+](=O)[O-])cc2)[nH]n(C(N)=S)c1=O yielded an IC50 of 2.22 µM. In the case of CC(C)(C)c1nc2ccccc2c2nnc(SCC(=O)Nc3nc4ccccc4s3)n12, the IC50 is reported as 2.03 µM. In the case of Cc1nnc(Sc2c(N)n(C)c(=O)[nH]c2=O)s1, the IC50 is reported as > 54 µM (inactive). CCc1c(C(=O)Nc2cc(C)ccc2OC)[nH]c(C)c1C(C)=O was tested, and the IC50 was > 54 µM (inactive). For Cc1ccccc1NC(=O)c1c(C)[nH]c(=S)c(C#N)c1-c1ccc(Cl)cc1, the IC50 was > 54 µM (inactive). For CCCCCCCCCCCCCCCC(O)C(N)CO (stereo unspecified), the IC50 was > 54 µM (inactive). O=C(c1ccccc1)N1CCN(C2CCCCCC2)CC1 was tested, and the IC50 was > 54 µM (inactive). For CC12CCC(C(=O)Nc3ccccc3-n3cccc3)(CC1=O)C2(C)C (stereo unspecified), the IC50 was > 54 µM (inactive). In the case of O=C(Nc1ccc2sccc2c1)c1ccc(Cl)s1, the IC50 is reported as > 54 µM (inactive). With CC(C)(C)CC(C)(C)NC(=S)NC1CCN(Cc2ccccc2)CC1 the IC50 was > 54 µM (inactive). For NC(=O)c1cccn1-c1ncc(C(F)(F)F)cc1Cl, the IC50 was > 54 µM (inactive). For O=S(=O)(Nc1cccc(-c2cn3ccsc3n2)c1)c1ccc(F)cc1, the IC50 was > 54 µM (inactive). c1coc(-c2nc3c4c5c(sc4ncn3n2)CCCC5)c1 was tested, and the IC50 was > 54 µM (inactive). O=C(NN1C(=O)C2C(C1=O)C1C=CC2C12CC2)c1ccc(Cl)cc1 (stereo unspecified) was tested, and the IC50 was > 54 µM (inactive). For COc1ccc(-n2c(=O)cc(N3CCOCC3)[nH]c2=O)cc1, the IC50 was > 54 µM (inactive). O=C1C(C=NCc2ccncc2)=C(O)c2ccccc21 was tested, and the IC50 was > 54 µM (inactive). For Cc1cccc(C(=O)Nc2ccnc(-c3cccnc3)n2)c1, the IC50 was > 54 µM (inactive). Work on CC(/C=C1\SC(=S)N(NS(=O)(=O)c2ccc(C)cc2)C1=O)=C\c1ccccc1 yielded an IC50 of 25 µM. For O=C1OC(c2ccccc2)=C/C1=C/N1CCCCC1, the IC50 was > 54 µM (inactive). Work on Oc1c(C(c2ccc(Cl)cc2)N2CCCC2)cc(Cl)c2cccnc12 (stereo unspecified) yielded an IC50 of 1.16 µM. C=CCn1cc(/C=N/NC(=O)COc2cccc3cccnc23)c2ccccc21 gave an IC50 of 3.38 µM. In the case of C=CCn1c(SCc2ccc(C#N)cc2)nnc1-c1cccc(OC)c1, the IC50 is reported as > 54 µM (inactive). With CNC(=S)Nc1cc(C)ccc1OC(F)F the IC50 was > 54 µM (inactive). CC1=C(C#N)C(=O)NC(=O)/C1=C\c1ccc(-c2ccc(C)cc2[N+](=O)[O-])o1 gave an IC50 of 1.09 µM. With CC(C)c1[nH]nc2c1C(c1cccnc1)C(C#N)=C(N)O2 (stereo unspecified) the IC50 was > 54 µM (inactive). Cc1ccnc(N/C=C(\C#N)c2nc(-c3cccc(Br)c3)cs2)c1 was tested, and the IC50 was 0.79 µM. For Cc1ccc(-n2c(=O)c3cc4c(=O)n(-c5ccc(C)c(C)c5)c(=O)c4c(C(=O)c4ccc(C(=O)O)cc4)c3c2=O)cc1C, the IC50 was 6.91 µM. COc1cc(NC(=O)C2CCN(S(=O)(=O)c3cccc4nonc34)CC2)cc(OC)c1 was tested, and the IC50 was > 54 µM (inactive). In the case of O=[N+]([O-])c1cccc(S(=O)(=O)Nc2nc3ccccc3nc2Nc2cccc(S(=O)(=O)N3CCCCC3)c2)c1, the IC50 is reported as “inactive”. For Cn1c(=O)c2c(nc(Cc3ccc(N)cc3)n2C)n(C)c1=O, the IC50 was > 54 µM (inactive). Cc1ccc(-c2noc(-c3ccccc3C(=O)N3CCN(C)CC3)n2)cc1 was tested, and the IC50 was > 54 µM (inactive). In the case of O=C(/C=C/N1CCOCC1)c1cc2ccccc2o1, the IC50 is reported as > 54 µM (inactive). In the case of O=C(O)/C=C\C(=O)N1CCc2ccccc21, the IC50 is reported as > 54 µM (inactive). With Cc1c([N+](=O)[O-])c(C(=O)Nc2ccc3c(c2)OCCO3)nn1C the IC50 was > 54 µM (inactive). Compound O=C(Nc1ccc(-c2nc3ccc(NC(=O)c4cccs4)cc3[nH]2)cc1)c1cccs1 has an IC50 of 0.79 µM. CC(C)C(C(=O)O)N1C(=O)/C(=C/C=C/c2ccco2)SC1=S (stereo unspecified) was tested, and the IC50 was 2.35 µM. Cc1cccc(NC(=S)c2nc3ccccc3s2)c1 was tested, and the IC50 was > 54 µM (inactive). In the case of CCOc1ccc(NC(=O)CC2C(=O)N(c3ccc(OC)cc3)C(=S)N2Cc2ccccn2)cc1 (stereo unspecified), the IC50 is reported as > 54 µM (inactive). In the case of Cc1ccc(S(=O)(=O)N2CN3CCN(C3)C2)cc1, the IC50 is reported as > 54 µM (inactive).
